Measured values from ChEMBL document CHEMBL1201862, “PubChem BioAssay data set” (2004).
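Protocol summary: plate cells (96-well), add compound at 5 concentrations, incubate 48 h, interpolate endpoints linearly. Here, GI50 denotes the concentration required for 50% inhibition of growth.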 Activity calls are given as the source filed them. Cut-off read from the data, not from the text of the source: active = GI50 up to about 1.1 µM and inactive = higher.

Experiments:
Assay in all cases: DTP human tumour cell line panel, 48 h
ACHN = system: ACHN
786-0 = system: 786-0
NCI-H460 = system: NCI-H460
RXF 393 = system: RXF 393
SK-MEL-5 = system: SK-MEL-5
A549 = system: A549
MDA-MB-435 = system: MDA-MB-435
SF-295 = system: SF-295
OVCAR-8 = system: OVCAR-8
HOP-92 = system: HOP-92
SW-620 = system: SW-620
UACC-62 = system: UACC-62
MCF7 = system: MCF7
NCI-H226 = system: NCI-H226
SN12C = system: SN12C
HOP-62 = system: HOP-62
RPMI-8226 = system: RPMI-8226
EKVX = system: EKVX
A498 = system: A498
SNB-19 = system: SNB-19
HCT-116 = system: HCT-116
SF-268 = system: SF-268
K562 = system: K562
HT-29 = system: HT-29
UO-31 = system: UO-31
LOX IMVI = system: LOX IMVI
SF-539 = system: SF-539
IGROV-1 = system: IGROV-1
COLO 205 = system: COLO 205
CAKI-1 = system: CAKI-1
U-251 = system: U-251
HCT-15 = system: HCT-15
TK-10 = system: TK-10
NCI/ADR-RES = system: NCI/ADR-RES
HCC 2998 = system: HCC 2998
SR = system: SR
OVCAR-4 = system: OVCAR-4
SK-OV-3 = system: SK-OV-3
OVCAR-3 = system: OVCAR-3
CCRF-CEM = system: CCRF-CEM
Hs-578T = system: Hs-578T
MOLT-4 = system: MOLT-4
SK-MEL-2 = system: SK-MEL-2
BT-549 = system: BT-549
MDA-MB-231 = system: MDA-MB-231
SK-MEL-28 = system: SK-MEL-28
OVCAR-5 = system: OVCAR-5
NCI-H23 = system: NCI-H23
UACC-257 = system: UACC-257
T47D = system: T47D
MDA-N = system: MDA-N
KM12 = system: KM12
Malme-3M = system: Malme-3M
HL-60 = system: HL-60
SNB-75 = system: SNB-75
NCI-H522 = system: NCI-H522
PC-3 = system: PC-3
M14 = system: M14
DU-145 = system: DU-145
DLD-1 = system: DLD-1
DMS-114 = system: DMS-114
LXFL 529 = system: LXFL 529
SNB-78 = system: SNB-78

Measured: GI50

O=c1[nH]c2nccn2c(Cl)c1Br
16.6 µM: HCT-15
inactive: ACHN 29.9 µM | 786-0 86.9 µM | NCI-H460 24.7 µM | RXF 393 1.94 µM | SK-MEL-5 25.2 µM | A549 > 100 µM | MDA-MB-435 19.8 µM | SF-295 > 100 µM | OVCAR-8 19.2 µM | HOP-92 24.7 µM | SW-620 26.6 µM | UACC-62 19.4 µM | MCF7 42.6 µM | NCI-H226 35.2 µM | SN12C 26.2 µM | HOP-62 > 100 µM | RPMI-8226 54.3 µM | EKVX 19.7 µM | A498 76 µM | SNB-19 27.7 µM | HCT-116 32.5 µM | SF-268 23.2 µM | K562 19.6 µM | HT-29 23.3 µM | UO-31 60 µM | LOX IMVI 18 µM | SF-539 > 100 µM | IGROV-1 20.3 µM | COLO 205 18.6 µM | CAKI-1 22.4 µM | U-251 17.3 µM | TK-10 > 100 µM | NCI/ADR-RES 22.9 µM | HCC 2998 21.1 µM | SR 22.4 µM | OVCAR-4 18 µM | SK-OV-3 29.6 µM | OVCAR-3 19.8 µM | CCRF-CEM 20.5 µM | Hs-578T 26.9 µM | MOLT-4 20.2 µM | SK-MEL-2 2.52 µM | BT-549 18.7 µM | MDA-MB-231 17.5 µM | SK-MEL-28 19.4 µM | OVCAR-5 23.4 µM | NCI-H23 17.9 µM | UACC-257 16.4 µM | T47D 14.8 µM | MDA-N 20 µM | KM12 95.1 µM | Malme-3M 20 µM | HL-60 17.2 µM | SNB-75 33.7 µM | NCI-H522 14.6 µM | PC-3 50.2 µM | M14 16.8 µM | DU-145 83.8 µM

COC(=O)C(Cc1nc2ccc(Cl)cc2nc1O)/C(=N\N)C(=O)Nc1cc(C)c(Cl)cc1S(=O)(=O)O (stereo not drawn)
inactive: ACHN > 100 µM | 786-0 > 100 µM | NCI-H460 > 100 µM | SK-MEL-5 > 100 µM | A549 > 100 µM | DLD-1 > 100 µM | SF-295 > 100 µM | OVCAR-8 > 100 µM | HOP-92 24.3 µM | DMS-114 73.5 µM | SW-620 > 10 µM | UACC-62 > 100 µM | NCI-H226 47.1 µM | LXFL 529 > 100 µM | SN12C > 100 µM | HOP-62 > 100 µM | RPMI-8226 88.3 µM | EKVX > 100 µM | A498 70.3 µM | SNB-19 > 100 µM | HCT-116 > 100 µM | SF-268 > 100 µM | K562 > 100 µM | HT-29 > 100 µM | UO-31 > 100 µM | LOX IMVI > 100 µM | SF-539 > 100 µM | IGROV-1 > 100 µM | COLO 205 > 100 µM | CAKI-1 > 100 µM | U-251 > 100 µM | HCC 2998 > 100 µM | SR 99.8 µM | OVCAR-4 > 100 µM | SK-OV-3 > 100 µM | OVCAR-3 > 100 µM | CCRF-CEM 43.1 µM | MOLT-4 > 100 µM | SK-MEL-2 > 100 µM | SK-MEL-28 > 100 µM | OVCAR-5 75.7 µM | NCI-H23 > 100 µM | UACC-257 > 100 µM | KM12 > 100 µM | Malme-3M > 100 µM | NCI-H522 90.6 µM | SNB-78 > 100 µM | M14 > 100 µM
> 100 µM: HCT-15
